Converted amounts (≈) assume the structure as drawn. Like-named read-outs stand apart in the source and are kept apart here.
What was measured:
E. coli PBP1a = E. coli PBP1a (Escherichia coli (strain K12), UniProt P02918); assay: Radioligand competition binding assay with 14C-labeled boronic acid probe, PBP1a
In short: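 Purified E. coli PBP1a (0.1 μM) preincubated 60 min with test boronic acid inhibitor in 20 mM Tris pH 7.5, 500 mM NaCl, 0.1% Triton X-100, then 60 min with 20 μM ^14C-labeled boronic acid probe. Bound probe recovered by spin desalting and counted by scintillation; EC50 reported.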

E. coli PBP1b = E. coli PBP1b (Escherichia coli (strain K12), UniProt P02919); assay: Radioligand competition binding assay with 14C-labeled boronic acid probe, PBP1b
[1] = test system: engineered strain of Escherichia coli harboring CTX-M15; assay: microbe, parasite or virus in culture; assay type: cell-based; settings: Escherichia coli
[2] = test system: E. coli DH5α empty pLBII vector control strain; assay: microbe, parasite or virus in culture; assay type: cell-based, Escherichia coli; settings: Escherichia coli, read-out: Microbiological Activity (MIC in mg/L), E. coli DH5α/pLBII
In short: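 MIC was the lowest concentration visibly free of growth after 16–20 h at 37 °C, against 5×10^5 CFU/mL of the empty-pLBII DH5α control strain. Twofold compound dilutions were made in cation-adjusted Mueller-Hinton broth.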

[3] = read-out: Microbiological Activity (MIC in mg/L), E. coli DH5α/pLBII-CTX-M15, engineered strain producing CTX-M15

Sequence of E. coli PBP1a (P02918 whole entry): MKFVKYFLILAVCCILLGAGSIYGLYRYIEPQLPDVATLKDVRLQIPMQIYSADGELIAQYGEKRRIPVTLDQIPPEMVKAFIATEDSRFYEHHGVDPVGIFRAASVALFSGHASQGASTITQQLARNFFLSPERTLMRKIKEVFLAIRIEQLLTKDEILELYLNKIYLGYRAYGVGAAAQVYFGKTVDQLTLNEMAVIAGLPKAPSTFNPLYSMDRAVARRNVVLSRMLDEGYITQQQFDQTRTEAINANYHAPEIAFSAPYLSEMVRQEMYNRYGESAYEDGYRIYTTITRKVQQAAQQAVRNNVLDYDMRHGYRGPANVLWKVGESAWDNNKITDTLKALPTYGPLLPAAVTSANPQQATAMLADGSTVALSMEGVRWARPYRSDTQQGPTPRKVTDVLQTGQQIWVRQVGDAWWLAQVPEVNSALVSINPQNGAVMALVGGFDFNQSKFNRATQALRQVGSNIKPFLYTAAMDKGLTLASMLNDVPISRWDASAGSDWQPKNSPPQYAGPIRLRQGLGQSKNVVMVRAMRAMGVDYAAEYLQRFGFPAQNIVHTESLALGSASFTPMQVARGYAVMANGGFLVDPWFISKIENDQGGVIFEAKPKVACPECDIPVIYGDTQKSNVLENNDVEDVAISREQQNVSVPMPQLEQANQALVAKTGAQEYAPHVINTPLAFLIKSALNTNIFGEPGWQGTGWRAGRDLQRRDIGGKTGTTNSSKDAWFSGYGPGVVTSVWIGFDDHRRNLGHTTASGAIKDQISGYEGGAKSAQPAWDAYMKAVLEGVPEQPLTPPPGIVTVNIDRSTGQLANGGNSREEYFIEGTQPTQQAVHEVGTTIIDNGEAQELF
Sequence of E. coli PBP1b (P02919 whole entry): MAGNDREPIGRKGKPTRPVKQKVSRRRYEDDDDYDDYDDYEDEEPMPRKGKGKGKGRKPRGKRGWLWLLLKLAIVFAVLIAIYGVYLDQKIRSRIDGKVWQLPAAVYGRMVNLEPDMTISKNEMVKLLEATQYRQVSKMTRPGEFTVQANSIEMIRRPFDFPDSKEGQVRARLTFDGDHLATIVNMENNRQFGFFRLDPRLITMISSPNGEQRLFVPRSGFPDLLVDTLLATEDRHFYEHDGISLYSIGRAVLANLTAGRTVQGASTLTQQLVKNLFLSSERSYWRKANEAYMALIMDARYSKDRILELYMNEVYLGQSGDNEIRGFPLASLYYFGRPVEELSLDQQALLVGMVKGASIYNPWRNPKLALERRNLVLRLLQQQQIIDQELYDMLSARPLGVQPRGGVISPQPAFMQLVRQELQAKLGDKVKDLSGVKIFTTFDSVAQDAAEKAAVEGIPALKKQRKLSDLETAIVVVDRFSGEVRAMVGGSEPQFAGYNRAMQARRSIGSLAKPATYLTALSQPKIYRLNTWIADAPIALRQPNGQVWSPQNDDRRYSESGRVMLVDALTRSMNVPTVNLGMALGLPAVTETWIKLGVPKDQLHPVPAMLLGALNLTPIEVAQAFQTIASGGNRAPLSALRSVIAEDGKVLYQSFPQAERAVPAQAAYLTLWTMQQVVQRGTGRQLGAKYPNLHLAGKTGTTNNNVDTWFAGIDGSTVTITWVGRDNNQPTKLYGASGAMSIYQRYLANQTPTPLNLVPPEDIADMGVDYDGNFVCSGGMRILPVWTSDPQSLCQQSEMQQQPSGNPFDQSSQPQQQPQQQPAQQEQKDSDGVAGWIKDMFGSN

With `CCN1CCN(C(=O)NC(C(=O)N[C@H]2Cc3cccc(C(=O)O)c3OB2O)c2csc(N)n2)C(=O)C1=O` (stereo partly drawn) [Example 5, (3R)-3-(2-(2-aminothiazol-4-yl)-2-(4-ethyl-2,3-dioxopiperazine-1-carboxamido)acetamido)-2-hydroxy-3,4-dihydro-2H-benzo[e][1,2]oxaborinine-8-carboxylic acid] the EC50 (E. coli PBP1a) was less than 10 µM and the EC50 (E. coli PBP1b) was less than 10 µM.

`CCN1CCN(C(=O)NC(C(=O)N[C@H]2Cc3cc(F)cc(C(=O)O)c3OB2O)c2csc(N)n2)C(=O)C1=O` (stereo partly drawn) [Example 16, (3R)-3-(2-(2-aminothiazol-4-yl)-2-(4-ethyl-2,3-dioxopiperazine-1-carboxamido)acetamido)-6-fluoro-2-hydroxy-3,4-dihydro-2H-benzo[e][1,2]oxaborinine-8-carboxylic acid] showed an MIC [1, 3] of 32 to 64 mg/L (≈ 58.4 to 117 µM) and an MIC [2] of 32 to 64 mg/L (≈ 58.4 to 117 µM).

With `CCN1CCN(C(=O)NC(C(=O)N[C@H]2Cc3cccc(C(=O)O)c3OB2O)c2ccc(O)c(O)c2Cl)C(=O)C1=O` (stereo partly drawn) [Example 37, (3R)-3-(2-(2-chloro-3,4-dihydroxyphenyl)-2-(4-ethyl-2,3-dioxopiperazine-1-carboxamido)acetamido)-2-hydroxy-3,4-dihydro-2H-benzo[e][1,2]oxaborinine-8-carboxylic acid] the MIC [1, 3] was 8 to 16 mg/L (≈ 13.9 to 27.8 µM) and the MIC [2] was 8 to 16 mg/L (≈ 13.9 to 27.8 µM).

`CCN1CCN(C(=O)NC(C(=O)N[C@H]2Cc3cccc(C(=O)O)c3OB2O)c2cnc(N)s2)C(=O)C1=O` (stereo partly drawn) [Example 51, (3R)-3-(2-(2-aminothiazol-5-yl)-2-(4-ethyl-2,3-dioxopiperazine-1-carboxamido)acetamido)-2-hydroxy-3,4-dihydro-2H-benzo[e][1,2]oxaborinine-8-carboxylic acid] was tested, and the EC50 (E. coli PBP1b) was 10 to 100 µM and the MIC [2] was 8 to 16 mg/L (≈ 15.1 to 30.2 µM).

Work on `CCN1CCN(C(=O)NC(C(=O)N[C@H]2Cc3cccc(C(=O)O)c3OB2O)c2ccc(O)c(O)c2F)C(=O)C1=O` (some centres unmarked) [Example 70] yielded an EC50 (E. coli PBP1a) of less than 10 µM and an MIC [1, 3] of 32 to 64 mg/L (≈ 57.3 to 115 µM).

In the case of `CCCN1CCN(C(=O)NC(C(=O)N[C@H]2Cc3cccc(C(=O)O)c3OB2O)c2ccc(O)c(O)c2Cl)C(=O)C1=O` (stereo partly drawn) [Example 82, (3R)-3-(2-(2-chloro-3,4-dihydroxyphenyl)-2-(2,3-dioxo-4-propylpiperazine-1-carboxamido)acetamido)-2-hydroxy-3,4-dihydro-2H-benzo[e][1,2]oxaborinine-8-carboxylic acid], the EC50 (E. coli PBP1b) is reported as 10 to 100 µM and the MIC [1, 3] is reported as 32 to 64 mg/L (≈ 54.4 to 109 µM).

Compound `CCN1CCN(C(=O)NC(C(=O)N[C@H]2Cc3cccc(C(=O)O)c3OB2O)c2ccc(O)cc2F)C(=O)C1=O` (stereo partly drawn) [Example 87, (3R)-3-(2-(4-ethyl-2,3-dioxopiperazine-1-carboxamido)-2-(2-fluoro-4-hydroxyphenyl)acetamido)-2-hydroxy-3,4-dihydro-2H-benzo[e][1,2]oxaborinine-8-carboxylic acid] has an MIC [1, 3] of 32 to 64 mg/L (≈ 59 to 118 µM).

`CCN1CCN(C(=O)NC(C(=O)N[C@H]2Cc3cccc(C(=O)O)c3OB2O)c2cc(O)c(O)cc2F)C(=O)C1=O` (stereo partly drawn) [Example 90, (3R)-3-(2-(4-ethyl-2,3-dioxopiperazine-1-carboxamido)-2-(2-fluoro-4,5-dihydroxyphenyl)acetamido)-2-hydroxy-3,4-dihydro-2H-benzo[e][1,2]oxaborinine-8-carboxylic acid] was tested, and the MIC [1, 3] was 8 to 16 mg/L (≈ 14.3 to 28.7 µM).

`CCN1CCN(C(=O)NC(C(=O)N[C@H]2Cc3cccc(C(=O)O)c3OB2O)c2ccc(S(N)(=O)=O)cc2)C(=O)C1=O` (stereo partly drawn) [Example 102, (3R)-3-(2-(4-ethyl-2,3-dioxopiperazine-1-carboxamido)-2-(4-sulfamoylphenyl)acetamido)-2-hydroxy-3,4-dihydro-2H-benzo[e][1,2]oxaborinine-8-carboxylic acid] gave an EC50 (E. coli PBP1a) of 10 to 100 µM and an MIC [1, 3] of 8 to 16 mg/L (≈ 13.6 to 27.2 µM).

`NS(=O)(=O)c1ccc(C(NC(=O)N2CCN(CCF)C(=O)C2=O)C(=O)N[C@H]2Cc3cccc(C(=O)O)c3OB2O)cc1` (stereo partly drawn) [Example 103, (3R)-3-(2-(4-(2-fluoroethyl)-2,3-dioxopiperazine-1-carboxamido)-2-(4-sulfamoylphenyl)acetamido)-2-hydroxy-3,4-dihydro-2H-benzo[e][1,2]oxaborinine-8-carboxylic acid] showed an EC50 (E. coli PBP1a) of 10 to 100 µM.

Compound `CCN1CCN(C(=O)NC(C(=O)N[C@H]2Cc3cccc(C(=O)O)c3OB2O)c2cccc(N)n2)C(=O)C1=O` (stereo partly drawn) [Example 104, (3R)-3-(2-(6-aminopyridin-2-yl)-2-(4-ethyl-2,3-dioxopiperazine-1-carboxamido)acetamido)-2-hydroxy-3,4-dihydro-2H-benzo[e][1,2]oxaborinine-8-carboxylic acid] has an EC50 (E. coli PBP1b) greater than 100 µM.

Work on `CCN1CCN(C(=O)NC(C(=O)N[C@H]2Cc3cccc(C(=O)[O-])c3OB2O)c2ccc[n+](CC(N)=O)c2)C(=O)C1=O` (stereo partly drawn) [Example 107, (3R)-3-(2-(1-(2-amino-2-oxoethyl)pyridin-1-ium-3-yl)-2-(4-ethyl-2,3-dioxopiperazine-1-carboxamido)acetamido)-2-hydroxy-3,4-dihydro-2H-benzo[e][1,2]oxaborinine-8-carboxylate] yielded an EC50 (E. coli PBP1b) greater than 100 µM and an MIC [1, 3] of 32 to 64 mg/L (≈ 56.5 to 113 µM).

`CCN1CCN(C(=O)NC(C(=O)N[C@H]2Cc3ccc(F)c(C(=O)O)c3OB2O)c2csc(N)n2)C(=O)C1=O` (stereo partly drawn) [Example 109, (3R)-3-(2-(2-aminothiazol-4-yl)-2-(4-ethyl-2,3-dioxopiperazine-1-carboxamido)acetamido)-7-fluoro-2-hydroxy-3,4-dihydro-2H-benzo[e][1,2]oxaborinine-8-carboxylic acid] was tested, and the EC50 (E. coli PBP1b) was greater than 100 µM and the MIC [1, 3] was 2 to 4 mg/L (≈ 3.65 to 7.3 µM).

Compound `CCN1CCN(C(=O)N[C@@H](C(=O)N[C@H]2Cc3ccc(F)c(C(=O)O)c3OB2O)[C@@H](C)O)C(=O)C1=O` [Example 110, (R)-3-((2R,3R)-2-(4-ethyl-2,3-dioxopiperazine-1-carboxamido)-3-hydroxybutanamido)-7-fluoro-2-hydroxy-3,4-dihydro-2H-benzo[e][1,2]oxaborinine-8-carboxylic acid] has an EC50 (E. coli PBP1b) greater than 100 µM and an MIC [1, 3] of 8 to 16 mg/L (≈ 16.2 to 32.4 µM).

`CCN1CCN(C(=O)NC(C(=O)N[C@H]2Cc3cccc(C(=O)O)c3OB2O)c2ccc(B(O)O)cc2)C(=O)C1=O` (some centres unmarked) [Example 112] showed an EC50 (E. coli PBP1b) greater than 100 µM and an MIC ([1]; read-out: Microbiological Activity (MIC in mg/L), E. coli DH5α/pLBII-CTX-M15) of 32 to 64 mg/L (≈ 58 to 116 µM).

With `O=C(O)c1cccc2c1OB(O)[C@@H](NC(=O)C(NC(=O)N1CCN(CCF)C(=O)C1=O)c1ccc(B(O)O)cc1)C2` (stereo partly drawn) [Example 113, (3R)-3-(2-(4-boronophenyl)-2-(4-(2-fluoroethyl)-2,3-dioxopiperazine-1-carboxamido)acetamido)-2-hydroxy-3,4-dihydro-2H-benzo[e][1,2]oxaborinine-8-carboxylic acid] the EC50 (E. coli PBP1b) was greater than 100 µM and the MIC [1, 3] was 32 to 64 mg/L (≈ 56.1 to 112 µM).

`CCN1CCN(C(=O)NC(C(=O)N[C@H]2Cc3cccc(C(=O)O)c3OB2O)c2cccs2)C(=O)C1=O` (stereo partly drawn) [Example 115, (3R)-3-(2-(4-ethyl-2,3-dioxopiperazine-1-carboxamido)-2-(thiophen-2-yl)acetamido)-2-hydroxy-3,4-dihydro-2H-benzo[e][1,2]oxaborinine-8-carboxylic acid] gave an EC50 (E. coli PBP1b) greater than 100 µM and an MIC [1, 3] of 32 to 64 mg/L (≈ 62.2 to 124 µM).

`CCN1CCN(C(=O)NC(C(=O)N[C@H]2Cc3cccc(C(=O)O)c3OB2O)c2cccc(O)n2)C(=O)C1=O` (stereo partly drawn) [Example 117, (3R)-3-(2-(4-ethyl-2,3-dioxopiperazine-1-carboxamido)-2-(6-hydroxypyridin-2-yl)acetamido)-2-hydroxy-3,4-dihydro-2H-benzo[e][1,2]oxaborinine-8-carboxylic acid] gave an EC50 (E. coli PBP1b) greater than 100 µM and an MIC [1, 3] of 32 to 64 mg/L (≈ 60.9 to 122 µM).

`CCN1CCN(C(=O)NC(C(=O)N[C@H]2Cc3cccc(C(=O)O)c3OB2O)c2cnc(O)cn2)C(=O)C1=O` (stereo partly drawn) [Example 121, (3R)-3-(2-(4-ethyl-2,3-dioxopiperazine-1-carboxamido)-2-(5-hydroxypyrazin-2-yl)acetamido)-2-hydroxy-3,4-dihydro-2H-benzo[e][1,2]oxaborinine-8-carboxylic acid] was tested, and the EC50 (E. coli PBP1b) was greater than 100 µM.

For `CCN1CCN(C(=O)NC(C(=O)N[C@H]2Cc3ccc(F)c(C(=O)O)c3OB2O)c2ccc(O)c(O)c2Cl)C(=O)C1=O` (stereo partly drawn) [Example 124, (3R)-3-(2-(2-chloro-3,4-dihydroxyphenyl)-2-(4-ethyl-2,3-dioxopiperazine-1-carboxamido)acetamido)-7-fluoro-2-hydroxy-3,4-dihydro-2H-benzo[e][1,2]oxaborinine-8-carboxylic acid], the EC50 (E. coli PBP1b) was less than 10 µM.

`CCCN1CCN(C(=O)NC(C(=O)N[C@H]2Cc3ccc(F)c(C(=O)O)c3OB2O)c2ccc(O)c(O)c2Cl)C(=O)C1=O` (some centres unmarked) [Example 125] showed an EC50 (E. coli PBP1b) of less than 10 µM.

Compound `O=C(O)c1c(F)ccc2c1OB(O)[C@@H](NC(=O)C(NC(=O)N1CCN(CCF)C(=O)C1=O)c1ccc(O)c(O)c1Cl)C2` (some centres unmarked) [Example 131] has an EC50 (E. coli PBP1b) of 10 to 100 µM.

`CCN1CCN(C(=O)NC(C(=O)N[C@H]2Cc3ccc(F)c(C(=O)O)c3OB2O)c2cc(O)c(O)cc2F)C(=O)C1=O` (stereo partly drawn) [Example 136, (3R)-3-(2-(4-ethyl-2,3-dioxopiperazine-1-carboxamido)-2-(2-fluoro-4,5-dihydroxyphenyl)acetamido)-7-fluoro-2-hydroxy-3,4-dihydro-2H-benzo[e][1,2]oxaborinine-8-carboxylic acid] showed an EC50 (E. coli PBP1b) of 10 to 100 µM.

Work on `CCN1CCN(C(=O)NC(C(=O)N[C@H]2Cc3ccc(F)c(C(=O)O)c3OB2O)c2ncc(O)cc2F)C(=O)C1=O` (stereo partly drawn) [Example 145, (3R)-3-(2-(4-ethyl-2,3-dioxopiperazine-1-carboxamido)-2-(3-fluoro-5-hydroxypyridin-2-yl)acetamido)-7-fluoro-2-hydroxy-3,4-dihydro-2H-benzo[e][1,2]oxaborinine-8-carboxylic acid] yielded an EC50 (E. coli PBP1b) greater than 100 µM.

— US12173018B2, “Penicillin-binding protein inhibitors” (priority 2018, dated 2024)
